Entries after “also recorded” stand apart in the source; their conditions may differ.

The test system of data set [1] is homozygous mutant dopamine transporter knockout (KO) mice. Briefly: Spontaneous activity in the open field, dopamine transporter KO mice. The class given is in vivo. On the procedure:
Male and female wild-type and homozygous mutant dopamine transporter KO mice (n˜10 mice/genotype/agent; produced by in vivo homologous recombination and bred at Duke University Medical Center, Durham, N.C.) were tested for spontaneous activity in the open field following a single injection of the vehicle or compound. […] All drugs were given in a volume of 5 mL/kg. Animals were returned to the open field for an additional 90 min. Spontaneous activity was evaluated in an automated Omnitech Digiscan apparatus (Accuscan Instruments, Columbus, Ohio). Activity was summated at 5 min intervals over the 2 h period of testing. Horizontal activity or locomotion was measured in terms of the total distance covered in cm, vertical activity or rearing was expressed in terms of the total numbers of vertical beam breaks, and stereotypy was quantified in terms of repetitive breaks of a given beam or beams with intervals of less than 1 sec. For the analyses, 10 WT and 10 KO mice were run in each of the treatment groups with approximately equal numbers of males and females assigned to each group. Data were analyzed by the Statistical Package for Social Sciences programs (version 11.0 for Windows; SPSS Science, Chicago, Ill.). The results for each dependent variable were analyzed by repeated analyses of variance (RMANOVA) for within subjects effects (group differences over time) and between-subjects effects (tests of main effects and interactions). Bonferroni corrected pair-wise comparisons were used as the post-hoc tests. A p<0.05 was considered significant.

For data set [2], the system named is wild-type mice. Briefly: Spontaneous activity in the open field, wild-type mice. Format: in vivo. As to conditions: WT mice; 2 mg/kg SC. How it is done:
Male and female wild-type and homozygous mutant dopamine transporter KO mice (n˜10 mice/genotype/agent; produced by in vivo homologous recombination and bred at Duke University Medical Center, Durham, N.C.) were tested for spontaneous activity in the open field following a single injection of the vehicle or compound. Mice were placed into the open field for 30 min and administered SC the vehicle (sterile water), 2 mg/kg amphetamine, or three concentrations of the test compound (10, 30, 100 mg/kg). All drugs were given in a volume of 5 mL/kg. Animals were returned to the open field for an additional 90 min. Spontaneous activity was evaluated in an automated Omnitech Digiscan apparatus (Accuscan Instruments, Columbus, Ohio). […] Horizontal activity or locomotion was measured in terms of the total distance covered in cm, vertical activity or rearing was expressed in terms of the total numbers of vertical beam breaks, and stereotypy was quantified in terms of repetitive breaks of a given beam or beams with intervals of less than 1 sec. […] Data were analyzed by the Statistical Package for Social Sciences programs (version 11.0 for Windows; SPSS Science, Chicago, Ill.). The results for each dependent variable were analyzed by repeated analyses of variance (RMANOVA) for within subjects effects (group differences over time) and between-subjects effects (tests of main effects and interactions). […]

Data set [3] has as its target T1, hDAT (human dopamine transporter) (Homo sapiens, UniProt Q01959).
T1 construct: expressed in transfected cells; host or cells: HEK293 cells (ATCC), clonal, kept under puromycin selection
Briefly: Inhibition of [125I]RTI-55 radioligand binding to hDAT in HEK293 cell membranes.

In data set [4] the target is T2, hSERT (human serotonin transporter) (Homo sapiens, UniProt P31645).
T2 construct: expressed in transfected cells; host or cells: HEK293 cells (ATCC), clonal, kept under puromycin selection
T2 sequence (P31645 whole entry): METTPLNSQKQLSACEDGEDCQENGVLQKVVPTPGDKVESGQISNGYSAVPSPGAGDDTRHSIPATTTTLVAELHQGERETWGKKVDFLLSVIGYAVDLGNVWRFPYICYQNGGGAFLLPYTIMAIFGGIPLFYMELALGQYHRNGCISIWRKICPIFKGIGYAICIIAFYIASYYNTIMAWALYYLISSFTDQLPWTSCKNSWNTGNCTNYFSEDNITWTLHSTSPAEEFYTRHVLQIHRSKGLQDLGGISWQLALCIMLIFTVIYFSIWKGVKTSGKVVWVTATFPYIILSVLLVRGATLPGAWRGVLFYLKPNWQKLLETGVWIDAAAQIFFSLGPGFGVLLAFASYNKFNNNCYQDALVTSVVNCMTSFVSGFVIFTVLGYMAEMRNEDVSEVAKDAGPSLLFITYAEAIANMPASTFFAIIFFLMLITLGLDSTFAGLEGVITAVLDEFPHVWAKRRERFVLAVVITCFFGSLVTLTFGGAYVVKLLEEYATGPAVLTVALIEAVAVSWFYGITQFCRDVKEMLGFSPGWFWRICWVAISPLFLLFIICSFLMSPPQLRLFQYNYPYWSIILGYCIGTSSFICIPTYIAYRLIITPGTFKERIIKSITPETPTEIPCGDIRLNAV
Briefly: Inhibition of [125I]RTI-55 radioligand binding to hSERT in HEK293 cell membranes.

Data set [5] concerns the target T3, hNET (human norepinephrine transporter) (Homo sapiens, UniProt P23975).
T3 construct: expressed in transfected cells; host or cells: HEK293 cells (ATCC), clonal, kept under geneticin selection
Briefly: biochemical. Format: binding. Conditions: HEK-hNET cells, mean ± SEM.

Data set [6] concerns the target T1, hDAT (human dopamine transporter). Briefly: Filtration assay for inhibition of [3H]dopamine uptake in HEK-hDAT cells. The class given is cell-based.
Data set [7] concerns the target T3, hNET (human norepinephrine transporter). Briefly: cell-based. As to conditions: HEK-hNET cells; mean ± SEM; read-out: [3H]NE Uptake IC50.
Data set [8] concerns rats with sciatic nerve ligation. Briefly: Thermal hyperalgesia (hindpaw withdrawal latency, plantar tester) in rats with sciatic nerve ligation. As to conditions: 30 mg/kg IP; for Mean paw withdrawal latency: n = 6, mean ± SEM. Format: in vivo, Sprague-Dawley rats. How it is done:
Young adult male Sprague-Dawley rats (CD(SD)IGS, 150-200 g) were initially anesthetized with isoflurane in O2 by a mask and the surgical procedure was performed according to the method described by Bennett and Xie (1988). Briefly, the right sciatic nerves were loosely tied using ligatures. All experiments were conducted in accordance with the guidelines of the International Association for the Study of Pain. The behavioral tests were conducted at least 14 days postoperatively.
The test compound was dissolved in saline and administered intraperitoneally at 30 mg/kg to animals in a volume of 3 mL/kg body weight.
To test for thermal hyperalgesia, the thermal response was determined by the hindpaw withdrawal latency, using a plantar tester (UGO BASILE, Italy), and a modified method of Hargreaves et al. (1988). Rats were allowed to acclimate within plastic enclosures on a clear glass plate maintained at room temperature. A radiant heat source (intensity 90) was controlled with a timer and focused onto the plantar surface of the rat right hind paw encompassing the glabrous skin. Paw withdrawal stopped both heat source and timer. A maximal cut-off 30 sec was used to prevent tissue damage. Rats were assessed for thermal hyperalgesia predose (0 hr) and at 1, 4 and 8 hours after 30 mg/kg test compound administration.
Data are expressed as mean±standard error of mean (SEM). The values of behavioral signs of neuropathic pain at various postoperative time points were compared with those of the preoperative control period by a repeated-measure One-way Analysis of Variance (followed by Dunnett's post-hoc test). P-values less than 0.05 were considered to be significant.

Data set [9] relates to hypocretin cell ablated narcoleptic mice (prepororexin/ataxin-3 transgenic). Briefly: Sleep parameters (EEG/EMG) in narcoleptic mice. The class given is in vivo. Conditions: for Duration of continuous wakefulness: resting period (ZT 2). The text has this:
(§1) The polygraph signal (EEG (electroencephalography) and EMG (electromyography)) was captured with SleepSign (Kissei Comtech), and the sleep stage was visually scored with 10 sec epoch for wakefulness, non-REM sleep and REM sleep. Scoring criteria are: Wakefulness is characterized by desynchronized low-amplitude, mixed frequency (>4 Hz) EEG and high EMG activity. Rhythmic alpha (8-9 Hz) wave (with high EMG activities) may also appear. Non-REM is characterized by synchronized, high-amplitude, low-frequency (0.25-4 Hz) with reduced EMG activity (compared to wakefulness). EEG activity in REM sleep is similar to that in wakefulness, with desynchronized, mixed frequency low amplitude waves. Rhythmic alpha (8-9 Hz) wave with reduced EMG activities may also appear. […] activity during REM sleep is reduced even further and in many cases, completely absent. Some muscle twitching may be apparent in the EMG trace during REM sleep.
(§2) Three drug doses of the test compound (50, 100 and 150 mg/kg PO) plus vehicle, was orally administered at ZT 2 (Zeitgeber time: 2 hours after light on) or ZT14 (Zeitgeber time: 2 hours after light off) and the effects on sleep was monitored for 6 hours after the drug administration (the sleep data was collected for 30 hours after the drug injection, and are available for further analysis). The doses for modafinil were 50 and 200 mg/kg PO (plus vehicle), and modafinil was also administered at ZT 2 and ZT 14.
(§3) If the polygraph signals of some mice were not sufficient to score the sleep stage with accuracy (especially bad EMG), data from these animals were excluded, and the minimum of 5 animals (except for the highest dose of the test compound in wild-type mice in dark period, n=4) were included for the data analysis and number of animals were indicated in the figures.
(§4) Effects of test compound and modafinil on the amount of wake, non-REM sleep, REM sleep (cumulative seconds), number of episodes for each sleep stage during 6 hours, mean wake/sleep-bout lengths (seconds) were analyzed in each animal and the mean of each parameter was calculated in each genotype. The effects of compounds on wake and sleep amounts are useful to evaluate the wake promoting potency, and the number of episodes for each sleep stage and the mean wake/sleep bout length are parameters for evaluating the sleep fragmentation. Amphetamine and modafinil, two main wake-promoting compounds currently used for the treatment of EDS associated with various etiologies (narcolepsy, idiopathic hypersomnia and secondary EDS), are known to increase wake time and prolong wake bout length in normal and EDS conditions.
(§5) A comparison of the effects between hypocretin deficient and wild-type mice is very useful in determining if the wake-promotion of the test compound is dependent on the availability of hypocretins, and if there is a possible change in the sensitivity of the receptive mechanisms of test compound in narcoleptic mice due to the hypocretin ligand deficiency.

In data set [10] the test system is littermate wild-type mice. Briefly: Sleep parameters (EEG/EMG) in littermate wild-type mice. Conditions: for Duration of continuous wakefulness: resting period (ZT 2). The class given is in vivo.
Description: as §1, §2, §3, §4, §5

[11] abbreviates: resting period, PO, genotypes not separated.

T1 sequence (Q01959 whole entry): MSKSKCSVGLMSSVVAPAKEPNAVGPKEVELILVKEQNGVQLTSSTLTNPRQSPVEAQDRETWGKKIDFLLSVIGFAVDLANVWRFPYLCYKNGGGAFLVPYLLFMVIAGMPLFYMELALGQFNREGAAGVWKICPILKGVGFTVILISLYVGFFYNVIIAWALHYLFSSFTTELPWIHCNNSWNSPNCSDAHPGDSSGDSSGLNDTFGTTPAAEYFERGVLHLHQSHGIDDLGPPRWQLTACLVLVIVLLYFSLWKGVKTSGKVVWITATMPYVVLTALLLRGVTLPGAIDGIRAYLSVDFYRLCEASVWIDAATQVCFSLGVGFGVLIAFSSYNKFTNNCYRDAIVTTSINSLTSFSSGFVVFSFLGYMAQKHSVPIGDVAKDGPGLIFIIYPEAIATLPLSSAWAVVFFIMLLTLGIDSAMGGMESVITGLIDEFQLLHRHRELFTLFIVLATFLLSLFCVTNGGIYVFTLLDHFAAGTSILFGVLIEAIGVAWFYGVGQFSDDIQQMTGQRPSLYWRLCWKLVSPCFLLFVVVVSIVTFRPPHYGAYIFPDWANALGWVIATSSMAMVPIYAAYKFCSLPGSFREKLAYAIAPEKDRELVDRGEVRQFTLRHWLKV
T3 sequence (P23975 whole entry): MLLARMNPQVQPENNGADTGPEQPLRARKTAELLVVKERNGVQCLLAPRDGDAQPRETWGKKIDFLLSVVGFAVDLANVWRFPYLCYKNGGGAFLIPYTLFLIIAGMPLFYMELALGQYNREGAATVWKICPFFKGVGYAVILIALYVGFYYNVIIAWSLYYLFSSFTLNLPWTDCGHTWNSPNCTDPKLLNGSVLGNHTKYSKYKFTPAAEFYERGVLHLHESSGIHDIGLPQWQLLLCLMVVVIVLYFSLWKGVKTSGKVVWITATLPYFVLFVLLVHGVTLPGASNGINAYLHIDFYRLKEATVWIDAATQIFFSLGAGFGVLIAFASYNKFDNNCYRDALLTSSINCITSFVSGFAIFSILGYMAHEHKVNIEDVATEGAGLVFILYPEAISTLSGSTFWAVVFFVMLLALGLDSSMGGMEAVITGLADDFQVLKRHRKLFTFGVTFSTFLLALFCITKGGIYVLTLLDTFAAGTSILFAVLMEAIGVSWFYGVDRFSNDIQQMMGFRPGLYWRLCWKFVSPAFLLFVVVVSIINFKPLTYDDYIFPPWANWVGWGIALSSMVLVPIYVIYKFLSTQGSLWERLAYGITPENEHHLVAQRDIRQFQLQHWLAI

On to `CC(N)Cc1ccccc1` (stereo not drawn) [Amphetamine, reference compound], for which the figures for the “Locomotor, rearing and stereotypical activities relative to vehicle controls” value in data set [1] (2 mg/kg SC) and in data set [2] were “decreased” and “increased”, respectively.

With `NC(=O)OC[C@H](N)Cc1ccccc1` [Test Compound, O-carbamoyl-(D)-phenylalaninol], the Ki (in general, the equilibrium dissociation constant of an inhibitor or competing ligand from its target) in data set [3] stood at 14.2 µM; in [4], 81.5 µM; in [5] (read-out: [125I]RTI-55 Binding Ki), 3.7 µM. Moreover, the Hill coefficient (commonly the slope factor of the fitted curve) is recorded as −0.77 ± 0.12 in data set [3] (HEK-hDAT cells, mean ± SEM); −2.28 ± 0.05 in [4] (HEK-hSERT cells, mean ± SEM); −1.45 ± 0.34 in data set [5]. Also, the IC50 (as a rule, the concentration needed to halve the response being measured) in data set [6] was found to be 2.9 µM; in data set [7] it was 4.4 µM. Moreover, in data set [1] (100 mg/kg SC vs 2 mg/kg amphetamine), the “Spontaneous activity compared with amphetamine” value was “suppressed activities more efficiently than amphetamine”. Further, the “Spontaneous activity (locomotor, rearing, stereotypical activities)” value in [1] (10, 30, 100 mg/kg SC, 90 min post-injection) is on record as “selectively reduced activity of the KO mice in a dose-dependent manner; also recorded: reduced activities in a dose-dependent fashion”. The “Mean paw withdrawal latency” value in data set [8] (0 hr (predose)) is 5.17 ± 0.27 s; in data set [8] (1 hr post-injection), 6.33 ± 0.14 s; in [8] (4 hr post-injection), 6.06 ± 0.21 s; in [8] (8 hr post-injection) it was 5.63 ± 0.16 s. For the same compound, the entries for the “% of Antagonism (latency at time point / latency at 0 hr − 1) × 100” value in [8] (1 hr post-injection), in data set [8] (4 hr post-injection) and in data set [8] (8 hr post-injection) were “(22.3%^@)”, “(17.2%)” and “(8.8%)”, respectively. In addition, the “Paw withdrawal latency to a thermal stimulus (in words)” value in data set [8] (vs pre-injection (0 hr)) was “significantly increased the paw withdrawal latency”. The “Duration of continuous wakefulness” value was “up to 3 hours” in [9] (narcoleptic mice, 50 mg/kg PO); at most 4 h in data set [9] (narcoleptic mice, 100 mg/kg PO); at most 5 h in data set [9] (narcoleptic mice, 150 mg/kg PO); “up to 3 hours” in data set [10] (50 mg/kg PO); at most 4 h in [10] (100 mg/kg PO); at most 5 h in [10] (150 mg/kg PO). For the same compound, the “Non-REM and REM sleep during the period of continuous wakefulness” value in data set [9] (narcoleptic mice, 50-150 mg/kg PO, resting period) is given as “completely suppressed”; in data set [10] (50-150 mg/kg PO, resting period), “completely suppressed”. The Wake-promoting effects result in data set [9] (narcoleptic mice, active (dark) period (ZT 14), 50-150 mg/kg PO) is reported as “much pronounced wake-promoting effects”; in [10] (active (dark) period (ZT 14), 50-150 mg/kg PO), “only small effects were observed”. Also, in data set [9] (narcoleptic mice, active period, 100 and 150 mg/kg PO), the Wake amounts entry was “brought up to the levels of wild-type mice”. For the same compound, in data set [9] (narcoleptic mice, active period, PO), the “Amounts of non-REM and REM sleep” value is recorded as “brought down to the levels of wild-type mice”. In addition, the “EEG patterns after administration” value in data set [9] (resting period, 50-150 mg/kg PO, genotypes not separated) is given as “no abnormal EEG patterns”. Also, the “Effect on REM sleep” value in data set [9] (setting [11]) is reported as “potently reduced REM sleep”.

Consider `NC(=O)C[S+]([O-])C(c1ccccc1)c1ccccc1` (stereo not drawn) [modafinil, reference compound], for which the “Wake amount versus wild-type baseline” value in data set [9] (narcoleptic mice, active period, 200 mg/kg PO) is listed as “did not bring the wake amount to that of the wild-type baseline levels”. Also, the Wakefulness entry in data set [9] (narcoleptic mice, active period, 50 and 200 mg/kg PO) is recorded as “dose-dependently increase wakefulness”. For the same compound, the “Wake promoting effect compared with test compound” value in data set [9] (resting period, 200 mg/kg PO, genotypes not separated) is “roughly corresponds to 50 mg/kg of test compound”. Besides, the Wake promoting effects result in data set [9] (resting period, 50 and 200 mg/kg PO, genotypes not separated) is listed as “modest”. Besides, the “Effect on REM sleep” value in [9] (setting [11]) is “did not strongly reduce REM sleep”.

For the origin of these results see patent US8623913B2, “Methods for treating restless legs syndrome” (priority 2010, dated 2014).
